IC50 data for 13 compounds are collected here from patent US10336702B2, “Pharmaceutically active compounds” (BERGENBIO ASA, priority 2015, dated 2019).

The IC50 is the concentration needed to halve the response being measured.

In assay [1] the target is T1, Akt3 (Homo sapiens, UniProt Q9Y243).
T1 construct: unspecified tag, removed (detagged) (cleaved yes); purchased SignalChem and Proteros (Akt3); Merck Millipore (PDK1) 14-452 (PDK1); none given for Akt3
In words: Akt activation assay (PDK1-mediated activation, LANCE Ultra crosstide TR-FRET), Akt3. To be noted: read-out: Biological Assay 1 IC50 (nM) Akt3. It counts as biochemical. The gist of the method: (§1)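 Two-step cascade format: Akt1, Akt2 or Akt3 phosphorylates Ulight-crosstide (100 nM) only after activation by 5 nM PDK1 in presence of PtdIns(3,4,5)P3 vesicles and 100 μM ATP. Product quantified by Eu-antibody TR-FRET after 30 min reaction.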

Assay [2] deals with T2, p-Akt3 in WM115 cells (Homo sapiens, UniProt Q9Y243).
T2 construct: SureFire assays to detect cellular p-Akt1, p-Akt2 and p-Akt3 levels in WM115 cells (Akt2/3) and LNCaP cells (Akt1); endogenous in cells; host or cells: WM115 (ECACC 91061232), insulin-stimulated
T2 sequence (Q9Y243 whole entry): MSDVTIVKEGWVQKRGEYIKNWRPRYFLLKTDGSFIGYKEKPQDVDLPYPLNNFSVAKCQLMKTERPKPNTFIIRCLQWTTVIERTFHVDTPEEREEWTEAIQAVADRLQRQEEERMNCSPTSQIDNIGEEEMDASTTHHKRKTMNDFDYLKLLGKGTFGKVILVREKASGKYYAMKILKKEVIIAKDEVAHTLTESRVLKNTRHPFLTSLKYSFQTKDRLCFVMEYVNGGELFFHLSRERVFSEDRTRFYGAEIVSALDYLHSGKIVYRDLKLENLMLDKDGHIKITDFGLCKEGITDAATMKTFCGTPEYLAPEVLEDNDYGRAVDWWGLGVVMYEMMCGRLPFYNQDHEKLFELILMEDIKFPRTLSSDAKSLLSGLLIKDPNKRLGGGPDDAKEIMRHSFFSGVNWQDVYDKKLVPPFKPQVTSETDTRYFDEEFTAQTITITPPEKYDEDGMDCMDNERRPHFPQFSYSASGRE
In words: Phospho-Akt cellular SureFire assay, p-Akt3 in WM115 cells. Type of assay: cell-based. To be noted: insulin stimulated, read-out: Biological Assay 2 IC50 (nM) Akt3 WM115. The text has this: (§2) Biological Assay 2: Phospho-Akt (p-Akt) Cellular SureFire Assays
(§3) The following describes SureFire assays to detect cellular p-Akt1, p-Akt2 and p-Akt3 levels in WM115 cells (Akt2/3) and LNCaP cells (Akt1). In the case of Akt2 and Akt3, Streptavidin-coated donor beads capture a biotinylated anti-mouse antibody that in turn recognises a mouse total Akt antibody which is specific to each isoform. The protein A-conjugated acceptor beads capture an antibody that recognises the phosphoprotein. Similarly in the Akt1 kit, the donor and acceptor beads are used to capture each antibody pair consisting of an antibody that specifically recognises Akt1 as well as an antibody that recognises the phosphoprotein. In each case, close proximity of the beads allows energy transfer from donor to acceptor.
(§4) Custom kit from TGR/Perkin Elmer for Akt2/3 containing anti-(pThr308)Akt antibody and biotinylated anti-mouse capture antibody.
Total Akt3 antibody (R&D Systems MAB 1463)
(§5) WM115 cells (ECACC, 91061232) cultured in MEM culture media (M2279) supplemented with 2 mM L-glutamine (G7513), 1% non-essential amino acids (M7145), 1% sodium pyruvate (S8636) and 10% FBS (F0804)
(§6) Cell treatment: 1×10^5 WM115 cells or 5×10^4 LNCaP cells were seeded into each well of a 96 well poly-D-Lysine coated tissue culture plate and incubated overnight at 37° C.+5% CO2. Media was removed from cells and replaced with assay buffer consisting of the full culture media described above but with 0.1% FBS instead of 10% FBS. Only WM115 cells were stimulated at 37° C.+5% CO2 for 10 min with 5 μL insulin at a final concentration of 100 nM. Cells were incubated with 5 μL of test compound at a final DMSO concentration of 0.3% for 15 min at 37° C.+5% CO2. Cell lysis was carried out according to kit instructions.
(§7) Assay format (performed in subdued lighting): 4 μL cell lysate and 5 μL reaction buffer were incubated together in the dark at room temperature for 2 h. Reaction buffer was supplemented with a 1/5 dilution of activation buffer, a 1/50 dilution of acceptor beads and in the case of the custom kits, antibodies were added at dilutions of 1/20,000 for Akt2 and 1/2,000 for Akt3.
(§8) 2 μL dilution buffer, supplemented with a 1/20 dilution of donor beads was added to each well and incubated for a further 2 h. Plates were read with the EnVision® Multilabel Plate Reader and using the AlphaScreen settings. Compound IC50 was determined using a 4-parameter equation.

Assay [3] deals with T3, Akt2 (Homo sapiens, UniProt P31751).
T3 construct: unspecified tag, removed (detagged) (cleaved yes); purchased SignalChem and Proteros (Akt2); Merck Millipore (PDK1) 14-452 (PDK1); none given for Akt2
T3 sequence (P31751 whole entry): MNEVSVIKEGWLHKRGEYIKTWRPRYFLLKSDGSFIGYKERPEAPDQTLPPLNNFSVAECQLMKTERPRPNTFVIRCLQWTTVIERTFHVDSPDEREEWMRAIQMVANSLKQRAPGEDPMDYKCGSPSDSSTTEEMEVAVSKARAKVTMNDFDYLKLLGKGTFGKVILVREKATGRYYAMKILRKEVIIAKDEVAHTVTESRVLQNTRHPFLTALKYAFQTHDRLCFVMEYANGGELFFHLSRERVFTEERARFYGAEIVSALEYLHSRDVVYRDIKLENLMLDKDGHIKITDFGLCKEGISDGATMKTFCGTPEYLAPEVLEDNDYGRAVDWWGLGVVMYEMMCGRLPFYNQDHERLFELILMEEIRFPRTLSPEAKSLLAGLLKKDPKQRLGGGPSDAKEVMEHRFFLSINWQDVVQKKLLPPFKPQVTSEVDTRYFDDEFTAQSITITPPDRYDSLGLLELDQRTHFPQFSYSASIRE
The assay is described as follows: Akt activation assay (PDK1-mediated activation, LANCE Ultra crosstide TR-FRET), Akt2. It counts as biochemical. To be noted: read-out: Biological Assay 1 IC50 (nM) Akt2. The gist of the method:
as §1
On the technique in general: TR-FRET usually uses a lanthanide donor and a delayed reading to cut background.

The target in assay [4] is T4, Akt1 (Homo sapiens, UniProt P31749).
T4 construct: unspecified tag, removed (detagged) (cleaved yes); purchased SignalChem and Proteros (Akt1); Merck Millipore (PDK1) 14-452 (PDK1); none given for Akt1
T4 sequence (P31749 whole entry): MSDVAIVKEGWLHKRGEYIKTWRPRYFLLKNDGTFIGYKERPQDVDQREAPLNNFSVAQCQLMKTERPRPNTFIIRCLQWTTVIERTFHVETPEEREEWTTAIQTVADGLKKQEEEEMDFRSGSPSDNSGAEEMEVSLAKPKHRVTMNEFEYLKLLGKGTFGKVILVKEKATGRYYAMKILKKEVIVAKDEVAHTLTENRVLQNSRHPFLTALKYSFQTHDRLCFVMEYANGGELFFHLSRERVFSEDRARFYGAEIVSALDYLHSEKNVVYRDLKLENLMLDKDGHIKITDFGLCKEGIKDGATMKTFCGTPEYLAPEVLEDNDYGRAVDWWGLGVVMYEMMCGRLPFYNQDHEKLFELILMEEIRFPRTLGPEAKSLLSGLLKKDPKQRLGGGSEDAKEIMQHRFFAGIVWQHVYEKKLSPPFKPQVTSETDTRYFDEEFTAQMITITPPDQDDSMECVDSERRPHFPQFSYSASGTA
In words: Akt activation assay (PDK1-mediated activation, LANCE Ultra crosstide TR-FRET), Akt1. Type of assay: biochemical. To be noted: read-out: Biological Assay 1 IC50 (nM) Akt1. The method, boiled down:
as §1

The target of assay [5] is T5, p-Akt2 in WM115 cells (Homo sapiens, UniProt P31751).
T5 construct: SureFire assays to detect cellular p-Akt1, p-Akt2 and p-Akt3 levels in WM115 cells (Akt2/3) and LNCaP cells (Akt1); endogenous in cells; host or cells: WM115 (ECACC 91061232), insulin-stimulated
T5 sequence (P31751 whole entry): as the sequence (P31751 whole entry) above
In words: Phospho-Akt cellular SureFire assay, p-Akt2 in WM115 cells. It counts as cell-based. To be noted: insulin stimulated, read-out: Biological Assay 2 IC50 (nM) Akt2 WM115.
Excerpt: as §2, §3, §4
Total Akt2 antibody (NEB UK, 5239)
as §5, §6, §7, §8

T1 sequence (Q9Y243 whole entry): as the sequence (Q9Y243 whole entry) above

`NC1(c2ccc(-c3ncc(NC(=O)C(F)C4CCN(S(=O)(=O)C5CC5)CC4)cc3-c3ccccc3)cc2)CCC1` (centres unmarked) [Example 40, N-(6-(4-(1-aminocyclobutyl)phenyl)-5-phenylpyridin-3-yl)-2-(1-(cyclopropylsulfonyl)piperidin-4-yl)-2-fluoroacetamide]: the concentration for half-maximal inhibition (IC50) in assay [1] is 360 nM; in assay [2], 220 nM; in assay [3], 440 nM; in assay [4] it was 9800 nM; in assay [5], 2900 nM.
For `CC(=O)N(C)[C@H]1CC[C@H](CC(=O)Nc2cc(-c3ccccc3)c(-c3ccc([C@]4(N)C[C@H](F)C4)cc3)nn2)CC1` [Example 46, N-(6-(4-(trans-1-amino-3-fluorocyclobutyl)phenyl)-5-phenylpyridazin-3-yl)-2-(trans-4-(N-methylacetamido)cyclohexyl)acetamide] the same measures were 100 nM, 46 nM, 440 nM, 11000 nM and 2600 nM.
On to `CC(=O)N(C(C)C)[C@H]1CC[C@H](CC(=O)Nc2cnc(-c3ccc(C4(N)CCC4)cc3)c(-c3ccccc3)c2)CC1` [Example 49, N-(6-(4-(1-aminocyclobutyl)phenyl)-5-phenylpyridin-3-yl)-2-(trans-4-(N-isopropylacetamido)cyclohexyl)acetamide], for which the IC50 in assay [1] stood at 280 nM; in assay [2] it was 140 nM; in assay [3], 530 nM; in assay [4], 6900 nM; in assay [5], 2900 nM.
In the same order, the values of `CC(=O)N(C)[C@H]1CC[C@H](CC(=O)Nc2cc(-c3ccccc3F)c(-c3ccc([C@]4(N)C[C@](C)(O)C4)cc3)cn2)CC1` [Example 94, N-(5-(4-(trans-1-amino-3-hydroxy-3-methylcyclobutyl)phenyl)-4-(2-fluorophenyl)pyridin-2-yl)-2-(trans-4-(N-methylacetamido)cyclohexyl)acetamide] are 11 nM, 13 nM, 120 nM, 20000 nM and 550 nM.
With `CCC(=O)N(C)[C@H]1CC[C@H](CC(=O)Nc2cc(-c3ccccc3F)c(-c3ccc([C@]4(N)C[C@](C)(O)C4)cc3)cn2)CC1` [Example 95, N-(trans-4-(2-((5-(4-(trans-1-amino-3-hydroxy-3-methylcyclobutyl)phenyl)-4-(2-fluorophenyl)pyridin-2-yl)amino)-2-oxoethyl)cyclohexyl)-N-methylpropionamide], the IC50 was 10 nM in assay [1]; 17 nM in assay [2]; 120 nM in assay [3]; more than 22000 nM in assay [4]; 660 nM in assay [5].
For `CN(C(=O)C(F)F)[C@H]1CC[C@H](CC(=O)Nc2cc(-c3ccccc3)c(-c3ccc([C@]4(N)C[C@](C)(O)C4)cc3)cn2)CC1` [Example 109, N-(trans-4-(2-((5-(4-(trans-1-amino-3-hydroxy-3-methylcyclobutyl)phenyl)-4-phenylpyridin-2-yl)amino)-2-oxoethyl)cyclohexyl)-2,2-difluoro-N-methylacetamide], the IC50 in assay [1] was 12 nM; in assay [2], 13 nM; in assay [3], 220 nM; in assay [4] it was more than 30000 nM; in assay [5] it was 780 nM.
In the same order, the values of `CC(=O)N(C)[C@H]1CC[C@H](CC(=O)Nc2cc(-c3ccccc3)c(-c3ccc([C@]4(N)C[C@](C)(O)C4)c(F)c3)cn2)CC1` [Example 111, N-(5-(4-(trans-1-amino-3-hydroxy-3-methylcyclobutyl)-3-fluorophenyl)-4-phenylpyridin-2-yl)-2-(trans-4-(N-methylacetamido)cyclohexyl)acetamide] are 68 nM, 29 nM, 1400 nM, more than 27000 nM and 3200 nM.
In the same order, the values of `CCC(=O)N(C)[C@H]1CC[C@H](CC(=O)Nc2cc(-c3ccccc3)c(-c3ccc([C@]4(N)C[C@](C)(O)C4)c(F)c3)cn2)CC1` [Example 112, N-(trans-4-(2-((5-(4-(trans-1-amino-3-hydroxy-3-methylcyclobutyl)-3-fluorophenyl)-4-phenylpyridin-2-yl)amino)-2-oxoethyl)cyclohexyl)-N-methylpropionamide] are 55 nM, 31 nM, 1300 nM, more than 30000 nM and 3400 nM.
On to `CCC(=O)N(CC)[C@H]1CC[C@H](CC(=O)Nc2cc(-c3ccccc3)c(-c3ccc([C@]4(N)C[C@](C)(O)C4)cc3)cn2)CC1` [Example 115, N-(trans-4-(2-((5-(4-(trans-1-amino-3-hydroxy-3-methylcyclobutyl)phenyl)-4-phenylpyridin-2-yl)amino)-2-oxoethyl)cyclohexyl)-N-ethylpropionamide], for which the IC50 in assay [1] was 24 nM; in assay [2] it was 15 nM; in assay [3] it was 330 nM; in assay [4] it was more than 30000 nM; in assay [5], 1000 nM.
In the same order, the values of `CCN(C(=O)OC)[C@H]1CC[C@H](CC(=O)Nc2cc(-c3ccccc3)c(-c3ccc([C@]4(N)C[C@](C)(O)C4)cc3)cn2)CC1` [Example 116, Methyl (trans-4-(2-((5-(4-(trans-1-amino-3-hydroxy-3-methylcyclobutyl)phenyl)-4-phenylpyridin-2-yl)amino)-2-oxoethyl)cyclohexyl) (ethyl)carbamate] are 21 nM, 72 nM, 220 nM, more than 30000 nM and 1400 nM.
For `CCC(=O)N(C)[C@H]1CC[C@H](CC(=O)Nc2cc(-c3ccccc3)c(-c3ccc([C@]4(N)C[C@H](F)C4)cc3)nn2)CC1` [Example 123, N-(trans-4-(2-((6-(4-(trans-1-amino-3-fluorocyclobutyl)phenyl)-5-phenylpyridazin-3-yl)amino)-2-oxoethyl)cyclohexyl)-N-methylpropionamide] the same measures were 12 nM, 38 nM, 230 nM, more than 25000 nM and 1700 nM.
As to `NC1(c2ccc(-c3ncc(NC(=O)C[C@H]4CC[C@H](N5CCOC5=O)CC4)cc3-c3ccccc3)cc2)CC(F)(F)C1` [Example A3, N-(6-(4-(1-amino-3,3-difluorocyclobutyl)phenyl)-5-phenylpyridin-3-yl)-2-(trans-4-(2-oxooxazolidin-3-yl)cyclohexyl)acetamide], the IC50 is 150 nM in assay [1]; 100 nM in assay [2]; 530 nM in assay [3]; more than 5100 nM in assay [4]; 2600 nM in assay [5].
Turning to `Cc1nncn1[C@H]1CC[C@H](CC(=O)Nc2cnc(-c3ccc(C4(N)CCC4)cc3)c(-c3ccccc3)c2)CC1` [Example A17, N-(6-(4-(1-aminocyclobutyl)phenyl)-5-phenylpyridin-3-yl)-2-(trans-4-(3-methyl-1,2,4-triazol-4-yl)cyclohexyl)acetamide], the IC50 in assay [1] is 62 nM; in assay [2], 1000 nM; in assay [3], 420 nM; in assay [4] it was 1500 nM; in assay [5], 12000 nM.
